From patent publication US20100160228A1, “METHOD FOR INHIBITING OR STIMULATING ANGIOGENESIS IN AN INDIVIDUAL” (VALTION TEKNILLINEN TUTKIMUSKESKUS, priority 2007, published 2010)

How the values were obtained:
Format in all cases: cell-based, human
HUVEC [1] = test: Time-lapse chemokinesis assay; details: HUVEC on gelatin, 4 hours time-lapse, FIG. 5B and FIG. 9
Method: (§1) FIG. 5. Controlled TCPTP activation inhibits VEGF-driven capillary formation, chemokinesis and chemotaxis. (A) HUVEC were cultured in fibrin gels and treated with or without VEGF and TAT peptides (200 nM). After 24 h the formation of capillary tubes was semiquantitatively scored. (B) HUVEC were plated on gelatin in the presence of the peptides (200 nM) or left untreated for 1 h. The cells were stimulated as indicated and migration of individual cells was tracked using time-lapse microscopy. Cumulative migration distance was plotted for randomly picked individual cells. (C) HUVEC were treated with 200 nM peptides and the transmigration assay was performed as in FIG. 3D. (D) HUVEC were transfected with siRNA against TCPTP or a control siRNA, and TCPTP expression was analysed with immunofluorescence. Equal exposures of TCPTP (green) and DAPI (blue) stainings are shown. 48 h post-transfection cells were subjected to transmigration assay as in […].
FIG. 9. TCPTP activation by α1-peptide inhibits VEGF induced chemokinesis. HUVEC were plated on gelatin in the presence of the peptides (200 nM) or left untreated for 1 h. The cells were stimulated as indicated and migration of individual cells was tracked using time-lapse microscopy. Representative images of individual cells overlayed with their migration patterns (different colours) at the indicated time points are shown.
Time-lapse chemokinesis assays. HUVEC were plated on gelatin-coated wells and allowed to attach for 1 h in the presence or absence of 200 nM α1TAT or ScrTAT and 20 ng/ml VEGF. Migration of individual cells was recorded at 5 min intervals for 4 h using 20× objective and digital video recording. The migration pathway of at least ten randomly picked cells was tracked using the Metamorph program. The cumulative migration distances were also plotted.

HUVEC [2] = test: Transwell chemotaxis assay towards VEGF; details: vector-transfected HUVEC, FIG. 3D
Method: FIG. 3. TCPTP activity controls VEGF-dependent responses in endothelial cells. (A) HUVEC were transfected with the constitutively active TCPTP (TC37) or vector control (pCG), stimulated or not with VEGF, and stained for VEGFR2 (red) and nuclei (blue) after fixation and permeabilization. Arrows indicate VEGFR2 vesicles. (B) HUVEC were treated as in (A) and subjected to trypsin digestion on ice. VEGFR2 protected from trypsin (=internalized pool) was detected by immunoblotting. The intensities of VEGFR2 bands were quantified and are expressed relative to pCG-VEGF control. A representative experiment out of 2 with similar results is shown. (C) HUVEC were transfected with no oligo, siRNA against TCPTP or a control siRNA, and TCPTP expression was measured using immunoblotting. Cells were treated with 80 ng/ml VEGF and proliferation of sparse cells plated on gelatin was assayed after 16 h using BrdU-based assay (mean±SD; n=4-6; *, p<0.05). (D) HUVEC were transfected as in (A) and chemotaxis towards VEGF was measured using a Transwell assay for 4 hours. Cells adhering to the bottom of the filter were fixed and stained with crystal violet. Number of migrated cells was counted (mean±SEM, n=3).
as §1
Chemotaxis assays. HUVEC electroporated with the DNA or siRNA or non-transfected HUVEC were treated with 200 nM α1TAT, ScrTAT or left untreated for 1 h. Transwell filters (8 μm pore size, Costar, Cambridge, Mass.) were coated with gelatin and medium (RPMI, 4 mM L-glutamine, 10% FBS) and VEGF (100 ng/ml) were added to the lower chamber. Cells were harvested from the culture plates, and transferred into the Transwell inserts (4×10^5 cells/well) in RPMI with 0.2% soybean trypsin inhibitor. […] The inserts were fixed in 4% paraformaldehyde, cells stained with 0.5% crystal violet and the number of migrated cells was counted using a microscope.

VEGFR2 = VEGFR2 kinase activity from HUVEC lysates (Kinase-Glo Plus); details: HUVEC treated with no peptide or with scrambled control TAT peptide, FIG. 4B
Method: (A) Serum-starved subconfluent HUVEC were treated for 1 h with α1 integrin cytoplasmic tail fusion peptide (α1TAT) or TAT-scramble control fusion peptide (ScrTAT) (both at 200 nM) followed by VEGF-induction (100 ng/ml, 15 min) where indicated. Cell lysates were resolved on SDS-PAGE and immunoblotted for phosphorylated VEGFR2 (or tubulin as a control). (B) HUVEC were treated as in (A) and VEGFR2 kinase activity (mean±SD, n=3) was measured from the cell lysates. **, p<0.01. (C) Recombinant, purified TCPTP was incubated with α1 or α2 cytoplasmic tail peptides (L-amino acids) or with α1 and scrambled TAT peptides (D-amino acids) and analyzed for phosphatase activity (mean±SD, n=3).
VEGFR2 kinase activity was studied using Kinase-Glo Plus kinase assay kit according to manufacturer's protocol (Promega) with 25 µM ATP. Briefly, HUVEC plated on gelatin were serum-starved overnight, treated with 400 nM α1TAT or ScrTAT or left untreated and stimulated with 100 ng/ml VEGF for 15 min, when indicated. The cells were lysed to ice-cold lysis buffer (1% NP-40, 20 mM Hepes pH 7.4, 150 mM NaCl, 10% glycerol, 2.5 mM EDTA, complete protease inhibitor (Roche) and phosphatase inhibitor coctails I and II (Sigma)). The lysates were incubated in anti-VEGFR2 or control IgG-coated wells with shaking for 2 h and washed 3 times with lysis buffer and 3 times with cold kinase assay buffer (20 mM Hepes pH 8, 0.1 mM Na3VO4, 10 mM MnCl2, 1 mM DTT). Kinase assay was performed for 10 min at +37° C.

Substance: VEGF
- induction of HUVEC chemokinesis (HUVEC [1]): 99±25%
- stimulation of chemotaxis (HUVEC [2]): > 2 fold
- increase of VEGFR2 kinase activity upon VEGF-stimulation (VEGFR2): about 10 fold
